Publication PMC4140855, “Production of an Attenuated Phenol-Soluble Modulin Variant Unique to the MRSA Clonal Complex 30 Increases Severity of Bloodstream Infection” (PLoS Pathogens, 2014)

Columns and labels:
[1] = molecular target: T1, FPR1 (Homo sapiens, UniProt P21462); assay: Ca2+ flux in HL60 cells stably transfected with FPR1; assay type: cell-based
T1 construct: expressed in transfected cells; host or cells: HL60 cells, stably transfected
T1 sequence (P21462 1-350): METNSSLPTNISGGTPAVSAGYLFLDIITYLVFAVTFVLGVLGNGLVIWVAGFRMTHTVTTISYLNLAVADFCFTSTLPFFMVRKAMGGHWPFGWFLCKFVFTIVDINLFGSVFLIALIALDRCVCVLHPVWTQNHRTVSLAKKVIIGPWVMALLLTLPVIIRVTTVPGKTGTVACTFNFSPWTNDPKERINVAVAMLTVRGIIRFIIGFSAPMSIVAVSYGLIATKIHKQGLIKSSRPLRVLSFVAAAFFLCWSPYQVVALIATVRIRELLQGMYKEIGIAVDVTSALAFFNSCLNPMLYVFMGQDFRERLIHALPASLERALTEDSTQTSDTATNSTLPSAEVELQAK
Description: Next, we analyzed Ca^2+ flux as a general measure to test for neutrophil activation, as used in previous studies. HL60 cells stably transfected with different FPR receptor genes were used to determine which FPR receptors are differentially activated by PSMα3 versus PSMα3N22Y (Fig. 4A). […] At a peptide concentration of 100 nM, we observed a difference of ∼factor 2 in chemotactic activity comparing the two peptides when FPR1 recognition was inhibited by CHIPS, likely attributable to FPR2-mediated recognition. Owing to the overall ∼10 times lower capacity to stimulate FPR receptors other than FPR2, we observed no chemotaxis at that peptide concentration with addition of the FPR2 blocking agent FLIPr.
(A) Differential activation of FPRs by PSMα3 versus PSMα3N22Y was measured using synthetic peptides and Ca^2+ flux observed in HL60 cells stably transfected with the corresponding FPR genes as readout, using three biological and two technical replicates. The calculated Kd values are shown on the right. […] (B) Ca^2+ flux in human neutrophils upon addition of PSMα3 or PSMα3N22Y and inhibition by FLIPr (FPR2 inhibitor) or CHIPS (FPR1 inhibitor). […]
Human neutrophils were isolated from venous blood of healthy donors as described, [39]. Neutrophil chemotaxis and Ca^2+ flux were determined as previously described, [24]. […] Chemotaxis of neutrophils was determined using a transwell system (Costar) with analysis of neutrophil migration using fluorescence labeling. Calcium fluxes were monitored as a surrogate marker for chemotaxis since it can be measured more robustly and accurately than chemotaxis. For measurement of Ca^2+ fluxes, 5×10^6 neutrophils/ml were labeled with a fluorescent dye and analyzed with a FACScalibur (Becton Dickinson) as described. […] Measurements of 2,000 events were performed and Ca^2+ flux was expressed as relative fluorescence corrected for buffer controls. […] At the desired times, PMN lysis was determined by release of lactate dehydrogenase (LDH) (Cytotoxicity Detection Kit, Roche Applied Sciences).

[2] = system: human erythrocytes; assay: Hemolysis; assay type: cell-based; conditions: synthetic peptides, 37°C, 1 h, 2% erythrocytes, OD 540 nm; 2 donors, triplicate; compared to PSMα3N22Y
Description: Figure 5 PSMα3N22Y has diminished cytolytic activities. (A) PMN lysis of synthetic PSMα3N22Y versus PSMα3. Data are from 2 donors, measured in triplicate each after incubation at 37°C for 1 h. […] (B) Hemolysis of synthetic PSMα3N22Y versus PSMα3. Data are from 2 donors, measured in triplicate, after incubation at 37°C for 1 h. (C, D) PMN lysis and hemolysis, respectively, of culture filtrates from PSMα3N22Y- versus PSMα3-producing strains when expressed on plasmids. pTXΔ16 is the empty control vector. The background strain in all constructs is a PSM-free USA300 strain (LACΔpsmαΔpsmβΔhld). Culture filtrates were diluted 1∶20 for the PMN lysis and 1∶2 for the hemolysis measurements. PMN lysis results are from two and hemolysis data from one donor, with three replicates measured each. (E) PMN lysis of culture filtrates from MRSA252 (252) versus 252*, in which the psmα3 gene (expressing PSMα3N22Y) on the genome was changed to express PSMα3 as present in all non-CC30 strains. […] Culture filtrates were diluted 1∶10. *, p<0.05 (paired t-test). […]
Hemolysis assays were performed according to Wang et al. Briefly, whole blood from humans was washed twice with ice-cold DPBS. […] After incubation at 37°C for 1 h, the plates were centrifuged at 233×g at 4°C for 5 min, supernatants were collected, and the optical density was measured at 540 nm.

Compound | Differential activation of FPR receptors by the two peptides ([1]; Ca2+ flux, transfected HL60 cells, not FPR2 and FPR3) | Kd ([1]; one site-binding model from Ca2+ flux, synthetic peptides, FPR1-transfected HL60 cells, three biological and two technical replicates, error = standard deviation) [µM] | Factor of difference in FPR1 Kd, PSMα3 versus PSMα3N22Y ([1]; significant difference) | Cytolytic capacity toward human erythrocytes [2]
CSCC[C@H](NC=O)C(=O)N[C@@H](CCC(=O)O)C(=O)N[C@@H](Cc1ccccc1)C(=O)N[C@H](C(=O)N[C@@H](C)C(=O)N[C@@H](CCCCN)C(=O)N[C@@H](CC(C)C)C(=O)N[C@@H](Cc1ccccc1)C(=O)N[C@@H](CCCCN)C(=O)N[C@@H](Cc1ccccc1)C(=O)N[C@@H](Cc1ccccc1)C(=O)N[C@@H](CCCCN)C(=O)N[C@@H](CC(=O)O)C(=O)N[C@@H](CC(C)C)C(=O)N[C@@H](CC(C)C)C(=O)NCC(=O)N[C@@H](CCCCN)C(=O)N[C@@H](Cc1ccccc1)C(=O)N[C@@H](CC(C)C)C(=O)NCC(=O)N[C@@H](CC(N)=O)C(=O)N[C@@H](Cc1ccc(O)cc1)C(=O)O)C(C)C [PSMα3N22Y] | only FPR1 was activated differentially | 3.04 ± 0.682 | ~5 | 
CSCC[C@H](NC=O)C(=O)N[C@@H](CCC(=O)O)C(=O)N[C@@H](Cc1ccccc1)C(=O)N[C@H](C(=O)N[C@@H](C)C(=O)N[C@@H](CCCCN)C(=O)N[C@@H](CC(C)C)C(=O)N[C@@H](Cc1ccccc1)C(=O)N[C@@H](CCCCN)C(=O)N[C@@H](Cc1ccccc1)C(=O)N[C@@H](Cc1ccccc1)C(=O)N[C@@H](CCCCN)C(=O)N[C@@H](CC(=O)O)C(=O)N[C@@H](CC(C)C)C(=O)N[C@@H](CC(C)C)C(=O)NCC(=O)N[C@@H](CCCCN)C(=O)N[C@@H](Cc1ccccc1)C(=O)N[C@@H](CC(C)C)C(=O)NCC(=O)N[C@@H](CC(N)=O)C(=O)N[C@@H](CC(N)=O)C(=O)O)C(C)C [PSMα3] |  |  |  | significantly higher cytolytic capacities
